Biological target: Sodium channel protein type 9 subunit alpha (Homo sapiens, UniProt Q15858)
Experiment: FLIPR Assay: […] Sodium Dye Assay with KCl: Cells were prepared by plating the recombinant HEK293 cells or other host cells expressing either recombinant or non-recombinant, native, Nav1.7 alpha subunit, alone or in combination with various beta and gamma subunits at a density of ~40,000 cells/well into a 96-well black, clear-bottom, PDL-coated plate. The assay can be adapted to 384-well or 1,536-well format, if desired, using proportionately fewer cells and less media. The plate was then incubated in growth media, with or without selective antibiotic, overnight at 37 C. at 5% CO2, 95% humidity, in preparation for the assay. For counter-screens of other voltage-gated sodium channels, the procedure was very similar, though optimal densities of cells, media and subsequent assay components can be fine-tuned for the particular cell line or isoform. […] Membrane Potential Assay with KCl: Cells are prepared by plating the recombinant HEK293 cells.
Assay type: cell-based

Sodium channel protein type 9 subunit alpha, sequence (Q15858 whole entry): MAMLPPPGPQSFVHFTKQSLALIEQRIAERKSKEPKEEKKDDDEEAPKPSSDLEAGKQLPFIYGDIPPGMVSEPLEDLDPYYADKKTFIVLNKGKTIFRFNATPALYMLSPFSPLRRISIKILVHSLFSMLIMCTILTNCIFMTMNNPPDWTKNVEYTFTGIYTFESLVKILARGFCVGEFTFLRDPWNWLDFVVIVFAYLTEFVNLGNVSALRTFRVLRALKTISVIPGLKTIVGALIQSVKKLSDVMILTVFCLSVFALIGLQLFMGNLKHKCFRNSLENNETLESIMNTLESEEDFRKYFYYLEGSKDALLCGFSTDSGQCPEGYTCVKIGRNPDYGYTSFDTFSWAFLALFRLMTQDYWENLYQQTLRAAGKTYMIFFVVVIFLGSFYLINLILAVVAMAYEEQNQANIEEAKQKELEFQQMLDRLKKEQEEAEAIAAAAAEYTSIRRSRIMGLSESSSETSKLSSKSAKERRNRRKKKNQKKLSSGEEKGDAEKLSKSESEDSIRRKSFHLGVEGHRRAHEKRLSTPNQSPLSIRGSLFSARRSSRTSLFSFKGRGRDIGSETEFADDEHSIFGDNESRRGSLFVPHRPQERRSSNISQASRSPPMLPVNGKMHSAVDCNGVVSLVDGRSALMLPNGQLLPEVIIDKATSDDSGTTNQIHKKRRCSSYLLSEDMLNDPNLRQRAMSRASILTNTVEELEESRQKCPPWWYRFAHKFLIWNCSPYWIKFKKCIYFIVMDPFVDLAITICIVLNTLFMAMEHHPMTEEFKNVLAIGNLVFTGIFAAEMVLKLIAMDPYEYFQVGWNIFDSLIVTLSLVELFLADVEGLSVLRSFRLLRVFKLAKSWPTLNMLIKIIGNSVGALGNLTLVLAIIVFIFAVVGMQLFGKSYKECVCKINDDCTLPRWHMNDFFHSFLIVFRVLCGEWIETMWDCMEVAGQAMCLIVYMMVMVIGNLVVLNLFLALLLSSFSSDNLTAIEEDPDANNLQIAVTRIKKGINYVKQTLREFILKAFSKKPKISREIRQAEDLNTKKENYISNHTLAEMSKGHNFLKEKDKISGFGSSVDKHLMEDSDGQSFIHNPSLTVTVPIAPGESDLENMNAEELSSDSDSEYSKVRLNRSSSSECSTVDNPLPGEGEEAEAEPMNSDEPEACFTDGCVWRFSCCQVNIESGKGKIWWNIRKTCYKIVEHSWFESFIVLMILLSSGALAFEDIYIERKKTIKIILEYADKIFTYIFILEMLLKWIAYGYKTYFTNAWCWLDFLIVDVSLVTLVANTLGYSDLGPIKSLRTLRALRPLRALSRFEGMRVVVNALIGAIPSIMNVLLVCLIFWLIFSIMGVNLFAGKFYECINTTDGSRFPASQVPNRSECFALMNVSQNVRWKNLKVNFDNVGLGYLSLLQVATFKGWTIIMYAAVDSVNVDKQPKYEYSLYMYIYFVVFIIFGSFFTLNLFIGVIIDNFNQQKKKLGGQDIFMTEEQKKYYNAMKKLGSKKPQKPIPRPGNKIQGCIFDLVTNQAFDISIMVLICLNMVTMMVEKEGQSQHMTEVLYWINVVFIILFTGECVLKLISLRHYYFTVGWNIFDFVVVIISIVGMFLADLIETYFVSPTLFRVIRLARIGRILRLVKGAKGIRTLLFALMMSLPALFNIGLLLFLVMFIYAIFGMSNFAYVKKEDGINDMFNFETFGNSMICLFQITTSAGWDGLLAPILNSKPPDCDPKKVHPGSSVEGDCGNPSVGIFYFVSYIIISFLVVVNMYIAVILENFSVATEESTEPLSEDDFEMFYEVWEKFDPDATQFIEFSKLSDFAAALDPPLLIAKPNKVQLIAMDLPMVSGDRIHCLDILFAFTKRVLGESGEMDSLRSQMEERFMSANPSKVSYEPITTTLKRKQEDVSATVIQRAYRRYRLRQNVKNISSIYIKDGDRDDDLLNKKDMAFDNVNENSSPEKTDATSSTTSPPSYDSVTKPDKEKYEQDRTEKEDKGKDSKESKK

Compound | IC50 [µM]
NC(=O)c1nc(N[C@H]2CCNC2=O)nc(-c2ccc(Oc3ccc(C(F)(F)F)cn3)cc2)n1 | 1.8
N#Cc1nc(N[C@H]2CCNC2=O)nc(-c2ccc(Oc3ccc(C(F)(F)F)cn3)cc2)n1 | > 20
N#Cc1nc(-c2ccc(Oc3ccc(OC(F)(F)F)cc3)cc2)nc(N2CCOCC2)n1 | > 20

— ChEMBL document CHEMBL3886216, “Triazine carboxamides as sodium channel blockers” (2015)
